Laboratory results reported in PMC11270571 (ACS Omega, 2024).
Entries after “also recorded” stand apart in the source; their conditions may differ.

Key:
human AChE = human AChE (Homo sapiens, UniProt P22303); experiment: AChE inhibition, modified Ellman spectrophotometric method; type: biochemical; conditions: for inhibition at 100 µM / inhibition at 1000 µM / inhibition at 0.001 µM / inhibition at 0.01 µM / inhibition at 0.1 µM / inhibition at 1 µM / inhibition at 10 µM: read-out: human AChE inhibition %
human BuChE = human BuChE (Homo sapiens, UniProt P06276); experiment: biochemical; conditions: for inhibition at 100 µM / inhibition at 1000 µM: read-out: human BuChE inhibition%
[1] = In vitro BBB permeability assay; type: in vitro ADME; conditions: PAMPA; for type of BBB permeation: class by Pe

Chain of human BuChE (P06276 29-602): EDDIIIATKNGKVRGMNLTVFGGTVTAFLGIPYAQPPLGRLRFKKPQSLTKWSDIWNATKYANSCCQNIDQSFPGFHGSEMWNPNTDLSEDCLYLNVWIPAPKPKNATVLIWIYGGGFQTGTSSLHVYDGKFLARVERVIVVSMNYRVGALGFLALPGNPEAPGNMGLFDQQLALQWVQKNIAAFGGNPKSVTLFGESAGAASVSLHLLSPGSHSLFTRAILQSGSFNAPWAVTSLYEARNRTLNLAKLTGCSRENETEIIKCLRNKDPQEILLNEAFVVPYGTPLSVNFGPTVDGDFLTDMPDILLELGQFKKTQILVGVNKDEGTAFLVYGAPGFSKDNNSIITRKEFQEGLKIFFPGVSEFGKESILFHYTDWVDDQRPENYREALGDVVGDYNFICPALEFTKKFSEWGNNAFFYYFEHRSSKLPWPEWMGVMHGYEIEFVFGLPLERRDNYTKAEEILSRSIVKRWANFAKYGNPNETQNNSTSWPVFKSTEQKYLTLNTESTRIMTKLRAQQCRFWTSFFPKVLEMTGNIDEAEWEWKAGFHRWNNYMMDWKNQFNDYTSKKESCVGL
Chain of human AChE (P22303 32-614): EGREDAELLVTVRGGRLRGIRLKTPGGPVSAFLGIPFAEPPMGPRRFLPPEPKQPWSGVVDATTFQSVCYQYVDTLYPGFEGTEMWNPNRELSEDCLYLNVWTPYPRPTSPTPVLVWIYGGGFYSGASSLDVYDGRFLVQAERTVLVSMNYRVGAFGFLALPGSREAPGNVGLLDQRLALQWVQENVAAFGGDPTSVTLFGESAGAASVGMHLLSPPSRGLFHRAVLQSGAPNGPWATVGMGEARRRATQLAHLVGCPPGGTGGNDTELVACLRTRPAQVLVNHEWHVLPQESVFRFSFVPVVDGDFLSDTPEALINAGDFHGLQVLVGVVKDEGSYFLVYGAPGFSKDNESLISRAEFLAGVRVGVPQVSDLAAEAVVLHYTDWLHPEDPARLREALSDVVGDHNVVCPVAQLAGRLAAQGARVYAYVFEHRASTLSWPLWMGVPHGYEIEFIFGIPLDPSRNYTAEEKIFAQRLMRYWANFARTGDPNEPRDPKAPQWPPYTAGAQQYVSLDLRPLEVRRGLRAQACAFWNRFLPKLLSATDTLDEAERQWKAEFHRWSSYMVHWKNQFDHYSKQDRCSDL

| Structure (SMILES) | IC50 (human AChE) [µM] | inhibition at 100 µM (human AChE) [%] | inhibition at 1000 µM (human AChE) [%] | IC50 (human BuChE) [µM] | inhibition at 100 µM (human BuChE) [%] | inhibition at 1000 µM (human BuChE) [%] | inhibition at 0.001 µM (human AChE) [%] | inhibition at 0.01 µM (human AChE) [%] | inhibition at 0.1 µM (human AChE) [%] | inhibition at 1 µM (human AChE) [%] | inhibition at 10 µM (human AChE) [%] | type of BBB permeation [1] | BBB permeability (in words) [1] |
| --- | --- | --- | --- | --- | --- | --- | --- | --- | --- | --- | --- | --- | --- |
| O=C(C=Cc1ccc(N2CCOCC2)cc1)c1ccsc1 [Compound 1, 3-(4-Morpholinophenyl)-1-(thiophen-3-yl)prop-2-en-1-one] | > 100 | 41.1 ± 1.87 | 78.3 ± 2.1 | > 1000 | 21.3 ± 0.84 | 46.6 ± 0.92 | – | – | – | – | – | – | – |
| Clc1ccc(N2N=C(c3ccsc3)CC2c2ccc(N3CCOCC3)cc2)cc1 (centres unmarked) [Compound 2g, 1-(4-Chlorophenyl)-3-(thiophen-3-yl)-5-[4-(4-morpholinyl)phenyl]-2-pyrazoline] | 0.122 ± 0.0051 | 86.6 ± 2.56 | 90.7 ± 1.15 | > 1000 | 20.8 ± 0.93 | 25 ± 0.96 | 15.6 ± 0.73 | 23.1 ± 1.06 | 47.9 ± 0.96 | 79.5 ± 1.57 | 82.4 ± 2.17 | CNS ± uncertain BBB permeation | – |
| Clc1cccc(N2N=C(c3ccsc3)CC2c2ccc(N3CCOCC3)cc2)c1 (centres unmarked) [Compound 2j, 1-(3-Chlorophenyl)-3-(thiophen-3-yl)-5-[4-(4-morpholinyl)phenyl]-2-pyrazoline] | 0.062 ± 0.003 | 89.5 ± 1.85 | 93.1 ± 2.85 | > 1000 | 24.9 ± 0.97 | 34.3 ± 1.55 | 19 ± 0.63 | 36.2 ± 0.98 | 60.8 ± 1.64 | 72 ± 1.78 | 80.2 ± 2.16 | CNS ± uncertain BBB permeation | – |
| Cc1ccc(N2N=C(c3ccsc3)CC2c2ccc(N3CCOCC3)cc2)cc1 (centres unmarked) [Compound 2c, 1-(4-Methylphenyl)-3-(thiophen-3-yl)-5-[4-(4-morpholinyl)phenyl]-2-pyrazoline] | > 100 | 38.7 ± 1.34 | 73.6 ± 2.06 | > 1000 | 20.6 ± 0.82 | 29.3 ± 0.99 | – | – | – | – | – | – | – |
| Brc1ccc(N2N=C(c3ccsc3)CC2c2ccc(N3CCOCC3)cc2)cc1 (centres unmarked) [Compound 2h, 1-(4-Bromophenyl)-3-(thiophen-3-yl)-5-[4-(4-morpholinyl)phenyl]-2-pyrazoline] | > 1000 | 20.9 ± 0.83 | 46.5 ± 1.94 | > 1000 | 26.2 ± 1.25 | 40.8 ± 1.94 | – | – | – | – | – | – | – |
| Fc1ccc(N2N=C(c3ccsc3)CC2c2ccc(N3CCOCC3)cc2)cc1 (centres unmarked) [Compound 2f, 1-(4-Fluorophenyl)-3-(thiophen-3-yl)-5-[4-(4-morpholinyl)phenyl]-2-pyrazoline] | > 100 | 45.4 ± 1.99 | 71.4 ± 2.46 | > 1000 | 21.9 ± 0.89 | 31.5 ± 1.15 | – | – | – | – | – | – | – |
| Brc1cccc(N2N=C(c3ccsc3)CC2c2ccc(N3CCOCC3)cc2)c1 (centres unmarked) [Compound 2k, 1-(3-Bromophenyl)-3-(thiophen-3-yl)-5-[4-(4-morpholinyl)phenyl]-2-pyrazoline] | > 1000 | 30.3 ± 1.03 | 45.8 ± 1.72 | > 1000 | 17.6 ± 0.81 | 29 ± 1.09 | – | – | – | – | – | – | – |
| COc1ccc(N2N=C(c3ccsc3)CC2c2ccc(N3CCOCC3)cc2)cc1 (centres unmarked) [Compound 2d, 1-(4-Methoxyphenyl)-3-(thiophen-3-yl)-5-[4-(4-morpholinyl)phenyl]-2-pyrazoline] | > 100 | 44.2 ± 1.24 | 84.5 ± 2.36 | > 1000 | 21.1 ± 0.86 | 33.1 ± 0.99 | – | – | – | – | – | – | – |
| Fc1cccc(N2N=C(c3ccsc3)CC2c2ccc(N3CCOCC3)cc2)c1 (centres unmarked) [Compound 2i, 1-(3-Fluorophenyl)-3-(thiophen-3-yl)-5-[4-(4-morpholinyl)phenyl]-2-pyrazoline] | > 100 | 37.6 ± 1.51 | 68.3 ± 2.15 | > 1000 | 27.4 ± 1.38 | 36.2 ± 1.42 | – | – | – | – | – | – | – |
| CS(=O)(=O)c1ccc(N2N=C(c3ccsc3)CC2c2ccc(N3CCOCC3)cc2)cc1 (centres unmarked) [Compound 2b, 1-(4-Methylsulfonylphenyl)-3-(thiophen-3-yl)-5-[4-(4-morpholinyl)phenyl]-2-pyrazoline] | > 1000 | 23.1 ± 0.95 | 40.6 ± 1.76 | > 1000 | 15.1 ± 0.78 | 26.4 ± 0.75 | – | – | – | – | – | – | – |
| O=[N+]([O-])c1cccc(N2N=C(c3ccsc3)CC2c2ccc(N3CCOCC3)cc2)c1 (centres unmarked) [Compound 2l, 1-(3-Nitrophenyl)-3-(thiophen-3-yl)-5-[4-(4-morpholinyl)phenyl]-2-pyrazoline] | 0.04 ± 0.0019 | 91.7 ± 1.92 | 95.3 ± 2.03 | > 1000 | 19.3 ± 0.82 | 30.5 ± 0.97 | 19.3 ± 0.75 | 42.2 ± 1.52 | 64.6 ± 1.85 | 75.4 ± 1.03 | 82.6 ± 1.51 | CNS+ high BBB permeation (high BBB permeation Pe (10^–6 cm s^–1) > 4.0) | high blood–brain barrier permeability; also recorded: high BBB permeability |
| c1ccc(N2N=C(c3ccsc3)CC2c2ccc(N3CCOCC3)cc2)cc1 (centres unmarked) [Compound 2a, 1-Phenyl-3-(thiophen-3-yl)-5-[4-(4-morpholinyl)phenyl]-2-pyrazoline] | 0.107 ± 0.0048 | 88.6 ± 2.06 | 91.4 ± 2.46 | > 1000 | 18.1 ± 0.76 | 31.1 ± 0.84 | 14.7 ± 0.66 | 20.3 ± 0.99 | 49.7 ± 1.74 | 82.5 ± 1.91 | 84.8 ± 1.8 | CNS+ high BBB permeation (high BBB permeation Pe (10^–6 cm s^–1) > 4.0) | high BBB permeability |
| N#Cc1ccc(N2N=C(c3ccsc3)CC2c2ccc(N3CCOCC3)cc2)cc1 (centres unmarked) [Compound 2e, 1-(4-Cyanophenyl)-3-(thiophen-3-yl)-5-[4-(4-morpholinyl)phenyl]-2-pyrazoline] | > 100 | 47.6 ± 1.85 | 81.2 ± 1.91 | > 1000 | 23.4 ± 1.06 | 38.9 ± 1.22 | – | – | – | – | – | – | – |
